Publication PMC13010326, “Fragment-Based Development of NSP14 Exonuclease Inhibitors Confounded by Batch-to-Batch Variability” (ACS Chemical Biology, 2026)
Read-outs that look alike come from different tables or passages of the source.

What was measured:
NSP14 ExoN [1] = molecular target: T1, NSP14 ExoN (Severe acute respiratory syndrome coronavirus 2, UniProt P0DTD1); test: biochemical
NSP14 = NSP14 (Severe acute respiratory syndrome coronavirus 2, UniProt P0DTD1); test: NSP14 DSF thermal shift assay; assay type: binding, SARS-CoV-2; details: 1 mM compound
Experimental: In technical triplicate, NSP14 (0.15 mg mL^–1) was prepared in 20 mM HEPES pH 7.5, 200 mM NaCl, 1 mM TCEP, and 2 mM MgCl2 and mixed with 1 mM compound or 2% DMSO. Samples were rested for 10 min and then mixed with SYPRO Orange (3× concentration, Invitrogen No. S6650). Raw melting curves (25–99 °C, 0.05 °C C/s, 20 μL volume) were collected on a QuantStudio 3 (Applied Biosystems) and each replicate well was individually normalized from 0 to 100 prior to averaging.

substrate dsRNA = test: Thiazole orange dsRNA intercalation (competition) counter-screen; assay type: binding; details: final 0.5% DMSO
Experimental: RNase T1 inhibition assay and thiazole orange RNA intercalation counter-screening assays were conducted essentially as previously reported. The TR-FRET ExoN activity assay dsRNA substrate and Assay Buffer were used for the intercalation assay and mixed with compounds in a final 0.5% DMSO.

NSP14 ExoN [2] = molecular target: T1, NSP14 ExoN; set-up: method as in not given; details: small biochemical screens; promiscuous compounds; ref not given; cited from earlier work
[3] = original (first) compound batches, read-out: pIC50, inhibition of NSP14 ExoN in biochemical activity assay (converted)
[4] = resynthesized, more stringently purified second batch
[5] = biochemically active (first) batch

## Cc1cc(N2CCNCC2)nc(C)n1 [Compound 1, reference compound]
NSP14 ExoN [1]; [3]
  IC50: 398 µM

## Cc1csc(CNC(=O)c2cc[nH]n2)n1 [Compound 2, reference compound]
NSP14 ExoN [1]; [3]
  IC50: > 501 µM

## CC(C)c1csc(CNC(=O)c2cc[nH]n2)n1 [Compound 3]
NSP14 ExoN [1]; [3]
  IC50: 2.51 µM
NSP14 ExoN [1]; [4]
  Activity of second batches against NSP14 ExoN: inactive
NSP14; [5]
  NSP14 destabilization by differential scanning fluorimetry (DSF): evidence of NSP14 destabilization
NSP14; biochemically inactive second batch
  NSP14 destabilization by differential scanning fluorimetry (DSF): did not

## C#Cc1nc(CNC(=O)c2cc[nH]n2)cs1 [Compound 4]
NSP14 ExoN [1]; original (first) batch, n = 5, read-out: IC50, inhibition of NSP14 ExoN in biochemical activity assay (as printed in text for 4) (converted)
  IC50: 158 µM

## C=Cc1csc(CNC(=O)c2cc[nH]n2)n1 [Compound 5]
NSP14 ExoN [1]; [3]
  IC50: 251 µM

## O=C(NCc1nc(C2CC2)cs1)c1cc[nH]n1 [Compound 6]
NSP14 ExoN [1]; [3]
  IC50: 50.1 µM
NSP14 ExoN [1]; [4]
  Activity of second batches against NSP14 ExoN: inactive

## O=C(NCc1nc(C2CC2)cs1)c1cc(CNCC2CC2)[nH]n1 [Compound 12, 5-(((Cyclopropylmethyl)amino)methyl)-N-((4-cyclopropylthiazol-2-yl)methyl)-1H-pyrazole-3-carboxamide]
Substrate dsRNA
  Binding to substrate dsRNA by thiazole orange competition assay: neither bound to substrate dsRNA
NSP14 ExoN [1]
  Activity of second batches against NSP14 ExoN: inactive
NSP14; [5]
  NSP14 destabilization by differential scanning fluorimetry (DSF): evidence of NSP14 destabilization

## CC(=O)NCc1cc(C(=O)NCc2nc(C3CC3)cs2)n[nH]1 [Compound 13]
Substrate dsRNA
  Binding to substrate dsRNA by thiazole orange competition assay: neither bound to substrate dsRNA
NSP14 ExoN [1]
  Activity of second batches against NSP14 ExoN: inactive
NSP14; [5]
  NSP14 destabilization by differential scanning fluorimetry (DSF): evidence of NSP14 destabilization

## O=C(NCc1nc(C2CC2)cs1)c1n[nH]c2ncccc12 [Compound 14]
NSP14 ExoN [1]; [3]
  IC50: 158 µM

## CC(=O)NCc1cc(C(=O)NCc2nc(C(C)C)cs2)n[nH]1 [Compound 15]
NSP14 ExoN [1]; [3]
  IC50: > 501 µM

## CC(C)c1csc(CNC(=O)c2cc(CNCC3CC3)[nH]n2)n1 [Compound 16]
NSP14 ExoN [1]; [3]
  IC50: > 501 µM

## O=C(O)C1=CC(=C(c2ccc(O)c(C(=O)O)c2)c2ccc(O)c(C(=O)O)c2)C=CC1=O [aurintricarboxylic acid]
NSP14 ExoN [2]
  Inhibition of NSP14 ExoN (in words): can inhibit NSP14 ExoN

## O=c1c2ccccc2[se]n1-c1ccccc1 [ebselen]
NSP14 ExoN [2]
  Inhibition of NSP14 ExoN (in words): can inhibit NSP14 ExoN

## O=C1C=C2C(=CCOC2O)O1 (centres unmarked) [patulin]
NSP14 ExoN [2]
  Inhibition of NSP14 ExoN (in words): can inhibit NSP14 ExoN

## CC(C)=CCOc1ccc(/C=C/C(=O)c2ccc(OCC=C(C)C)cc2OCC(=O)O)cc1 [sofalcone]
NSP14 ExoN [2]
  Inhibition of NSP14 ExoN (in words): can inhibit NSP14 ExoN
